Like-named read-outs stand apart in the source and are kept apart here.
Assays:
[1] = tested on: nutsedge, yellow (yellow nutsedge, Cyperus esculentus); assay: Test C pre-/postemergence: nutsedge, yellow; assay type: in vivo
In short: (§1)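 Preemergence on seeds in loam/sand, postemergence on 2–18 cm (1–4-leaf) plants in peat-based medium; compounds in non-phytotoxic solvent with surfactant. After 13–15 days in greenhouse, visual rating versus controls, 0 (no effect) to 100 (complete control).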

[2] = tested on: Oilseed Rape; assay: Test C preemergence: oilseed rape; assay type: in vivo, Brassica napus; conditions: 125 g ai/ha, scale 0 to 100, 0 no effect, 100 complete control
[3] = tested on: foxtail, giant (giant foxtail, Setaria faberii); assay: Test A pre-/postemergence: foxtail, giant; assay type: in vivo; conditions: for pest or weed control at 125 g/ha / pest or weed control at 500 g/ha: Setaria faberi, 240 h
In short: (§2)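 Seeds were sown in loam/sand blend and sprayed preemergence (directed soil spray) and, simultaneously, postemergence at 2–10 cm, one- to two-leaf stage, using compounds in non-phytotoxic solvent with surfactant. After ~10 days in greenhouse, injury was rated visually versus untreated controls, 0 (no effect) to 100 (complete control).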

[4] = tested on: crabgrass, large (large crabgrass, Digitaria sanguinalis); assay: Test A pre-/postemergence: crabgrass, large; assay type: in vivo; conditions: for pest or weed control at 125 g/ha / pest or weed control at 500 g/ha: Digitaria sanguinalis, 240 h
In short: as §2

[5] = tested on: soybean (Glycine max); assay: Test C pre-/postemergence: soybean; assay type: in vivo
In short: as §1

[6] = tested on: pigweed (Amaranthus retroflexus); assay: Test A pre-/postemergence: pigweed; assay type: in vivo; conditions: for pest or weed control at 125 g/ha / pest or weed control at 500 g/ha: Amaranthus retroflexus, 240 h
In short: as §2

[7] = tested on: foxtail, giant (giant foxtail, Setaria faberii); assay: Test C pre-/postemergence: foxtail, giant; assay type: in vivo
In short: as §1

[8] = tested on: pigweed (Amaranthus retroflexus); assay: Test C pre-/postemergence: pigweed; assay type: in vivo
In short: as §1

[9] = tested on: wheat (Triticum aestivum); assay: Test A pre-/postemergence: wheat; assay type: in vivo; conditions: for plant injury at 125 g/ha / plant injury at 500 g/ha: Triticum aestivum, 240 h
In short: as §2

[10] = tested on: wild oat (Avena fatua); assay: Test C pre-/postemergence: wild oat; assay type: in vivo; conditions: Postemergence
In short: as §1

[11] = tested on: Waterhemp; assay: Test C postemergence: waterhemp; assay type: in vivo
Description: At the same time, plants selected from these crop and weed species and also barley (winter barley, Hordeum vulgare), canarygrass (Phalaris minor), chickweed (common chickweed, Stellaria media) windgrass (Apera spica-venti) and deadnettle (henbit deadnettle, Lamium amplexicaule) were planted in pots containing Redi-Earth® planting medium (Scotts Company, 14111 Scottslawn Road, Marysville, Ohio 43041) comprising spaghnum peat moss, vermiculite, wetting agent and starter nutrients and treated with postemergence applications of test chemicals formulated in the same manner. Plants ranged in height from 2 to 18 cm (1- to 4-leaf stage) for postemergence treatments.
Treated plants and controls were maintained in a greenhouse for 13 to 15 days, after which time all species were compared to controls and visually evaluated. Plant response ratings, summarized in Table C, are based on a scale of 0 to 100 where 0 is no effect and 100 is complete control. A dash (-) response means no test result.

[12] = Preemergence, 31 g ai/ha, scale of 0 to 100, 0 is no effect, 100 is complete control
[13] = Preemergence, 62 g ai/ha, scale of 0 to 100, 0 is no effect, 100 is complete control
[14] = Preemergence, 125 g ai/ha, scale 0 to 100, 0 no effect, 100 complete control
[15] = Preemergence, 250 g ai/ha, scale 0 to 100, 0 no effect, 100 complete control
[16] = Postemergence, 125 g ai/ha, 0 to 100 scale, 0 is no effect, 100 is complete control
[17] = Postemergence, 500 g ai/ha, 0 to 100 scale, 0 is no effect, 100 is complete control
[18] = Preemergence, 125 g ai/ha, 0 to 100 scale where 0 is no effect and 100 is complete control
[19] = Preemergence, 500 g ai/ha, 0 to 100 scale (0 no effect, 100 complete control)
[20] = Postemergence, 31 g ai/ha, scale 0 to 100 (0 no effect, 100 complete control)
[21] = Postemergence, 62 g ai/ha, scale 0 to 100 (0 no effect, 100 complete control)
[22] = Postemergence, 125 g ai/ha, scale 0 to 100, 0 no effect, 100 complete control
[23] = Postemergence, 250 g ai/ha, scale 0 to 100
[24] = Preemergence, 31 g ai/ha, scale 0 (no effect) to 100 (complete control)
[25] = 31 g ai/ha, scale 0 to 100 (0 no effect, 100 complete control)
[26] = 62 g ai/ha, scale 0 to 100 (0 no effect, 100 complete control)

CCOCc1nn(-c2ccc(F)cc2)nc1Oc1ccnc(C(F)(F)F)c1 [Compound 163]
Plant response rating, Nutsedge, Yellow [1, 12]: 0 | Plant response rating, Nutsedge, Yellow [1, 13]: 0 | Plant response rating, Nutsedge, Yellow [1, 14]: 20 | Plant response rating, Nutsedge, Yellow [1, 15]: 75 | Plant response rating, Oilseed Rape [2]: 80 | Plant response rating, Foxtail, Giant [3, 16]: 60 | Foxtail, Giant plant response rating [3, 17]: 90 | Plant response rating, Foxtail, Giant [3, 18]: 100 | Plant response rating, Foxtail, Giant [3, 19]: 100 | Plant response rating, Crabgrass, Large [4, 16]: 70 | Crabgrass, Large plant response rating [4, 17]: 100 | Plant response rating, Crabgrass, Large [4, 18]: 100 | Plant response rating, Crabgrass, Large [4, 19]: 100 | Plant response rating, Soybean [5, 12]: 5 | Plant response rating, Soybean [5, 13]: 5 | Plant response rating, Soybean [5, 14]: 10 | Plant response rating, Soybean [5, 15]: 20 | Plant response rating, Pigweed [6, 16]: 100 | Pigweed plant response rating [6, 17]: 100 | Plant response rating, Pigweed [6, 18]: 100 | Plant response rating, Pigweed [6, 19]: 100 | Plant response rating, Foxtail, Giant [7, 12]: 40 | Plant response rating, Foxtail, Giant [7, 13]: 60 | Plant response rating, Foxtail, Giant [7, 14]: 80 | Plant response rating, Foxtail, Giant [7, 15]: 100 | Plant response rating, Pigweed [8, 12]: 95 | Plant response rating, Pigweed [8, 13]: 98 | Plant response rating, Pigweed [8, 14]: 100 | Plant response rating, Pigweed [8, 15]: 100 | Plant response rating, Wheat [9, 16]: 20 | Wheat plant response rating [9, 17]: 40 | Plant response rating, Wheat [9, 18]: 0 | Plant response rating, Wheat [9, 19]: 0

CCOc1nn(-c2ccc(C(F)(F)F)cc2)nc1Cc1ccnc(C(F)(F)F)c1 [Compound 164, 4-[[5-ethoxy-2-[4-(trifluoromethyl)phenyl]-2H-1,2,3-triazol-4-yl]methyl]-2-(trifluoromethyl)pyridine]
Plant response rating, Nutsedge, Yellow [1, 20]: 0 | Plant response rating, Nutsedge, Yellow [1, 21]: 5 | Plant response rating, Nutsedge, Yellow [1, 22]: 5 | Plant response rating, Nutsedge, Yellow [1, 23]: 10 | Plant response rating, Nutsedge, Yellow [1, 24]: 0 | Plant response rating, Nutsedge, Yellow [1, 13]: 0 | Plant response rating, Nutsedge, Yellow [1, 14]: 0 | Plant response rating, Nutsedge, Yellow [1, 15]: 0 | pest or weed control at 125 g/ha ([3]; post-emergence, Postemergence, 125 g ai/ha, 0 to 100 scale, 0 is no effect, 100 is complete control, read-out: Plant response rating, Foxtail, Giant): 90% | pest or weed control at 500 g/ha ([3]; post-emergence, Postemergence, 500 g ai/ha, 0 to 100 scale, 0 is no effect, 100 is complete control, read-out: Foxtail, Giant plant response rating): 90% | pest or weed control at 125 g/ha ([3]; pre-emergence, Preemergence, 125 g ai/ha, 0 to 100 scale where 0 is no effect and 100 is complete control, read-out: Plant response rating, Foxtail, Giant): 100% | pest or weed control at 500 g/ha ([3]; pre-emergence, Preemergence, 500 g ai/ha, 0 to 100 scale (0 no effect, 100 complete control), read-out: Plant response rating, Foxtail, Giant): 100% | pest or weed control at 125 g/ha ([4]; post-emergence, Postemergence, 125 g ai/ha, 0 to 100 scale, 0 is no effect, 100 is complete control, read-out: Plant response rating, Crabgrass, Large): 90% | pest or weed control at 500 g/ha ([4]; post-emergence, Postemergence, 500 g ai/ha, 0 to 100 scale, 0 is no effect, 100 is complete control, read-out: Crabgrass, Large plant response rating): 90% | pest or weed control at 125 g/ha ([4]; pre-emergence, Preemergence, 125 g ai/ha, 0 to 100 scale where 0 is no effect and 100 is complete control, read-out: Plant response rating, Crabgrass, Large): 100% | pest or weed control at 500 g/ha ([4]; pre-emergence, Preemergence, 500 g ai/ha, 0 to 100 scale (0 no effect, 100 complete control), read-out: Plant response rating, Crabgrass, Large): 100% | Plant response rating, Soybean [5, 20]: 30 | Plant response rating, Soybean [5, 21]: 40 | Plant response rating, Soybean [5, 23]: 50 | Plant response rating, Soybean [5, 24]: 0 | Plant response rating, Soybean [5, 13]: 0 | Plant response rating, Soybean [5, 14]: 5 | Plant response rating, Soybean [5, 15]: 5 | pest or weed control at 125 g/ha ([6]; post-emergence, Postemergence, 125 g ai/ha, 0 to 100 scale, 0 is no effect, 100 is complete control, read-out: Plant response rating, Pigweed): 100% | pest or weed control at 500 g/ha ([6]; post-emergence, Postemergence, 500 g ai/ha, 0 to 100 scale, 0 is no effect, 100 is complete control, read-out: Pigweed plant response rating): 100% | pest or weed control at 125 g/ha ([6]; pre-emergence, Preemergence, 125 g ai/ha, 0 to 100 scale where 0 is no effect and 100 is complete control, read-out: Plant response rating, Pigweed): 100% | pest or weed control at 500 g/ha ([6]; pre-emergence, Preemergence, 500 g ai/ha, 0 to 100 scale (0 no effect, 100 complete control), read-out: Plant response rating, Pigweed): 100% | Plant response rating, Foxtail, Giant [7, 20]: 10 | Plant response rating, Foxtail, Giant [7, 21]: 20 | Plant response rating, Foxtail, Giant [7, 22]: 20 | Plant response rating, Foxtail, Giant [7, 23]: 35 | Plant response rating, Foxtail, Giant [7, 24]: 50 | Plant response rating, Foxtail, Giant [7, 13]: 65 | Plant response rating, Foxtail, Giant [7, 14]: 98 | Plant response rating, Foxtail, Giant [7, 15]: 100 | Plant response rating, Pigweed [8, 20]: 50 | Plant response rating, Pigweed [8, 21]: 75 | Plant response rating, Pigweed [8, 22]: 80 | Plant response rating, Pigweed [8, 23]: 80 | Plant response rating, Pigweed [8, 24]: 10 | Plant response rating, Pigweed [8, 13]: 35 | Plant response rating, Pigweed [8, 14]: 90 | Plant response rating, Pigweed [8, 15]: 100 | plant injury at 125 g/ha ([9]; post-emergence, Postemergence, 125 g ai/ha, 0 to 100 scale, 0 is no effect, 100 is complete control, read-out: Plant response rating, Wheat): 50% | plant injury at 500 g/ha ([9]; post-emergence, Postemergence, 500 g ai/ha, 0 to 100 scale, 0 is no effect, 100 is complete control, read-out: Wheat plant response rating): 60% | plant injury at 125 g/ha ([9]; pre-emergence, Preemergence, 125 g ai/ha, 0 to 100 scale where 0 is no effect and 100 is complete control, read-out: Plant response rating, Wheat): 50% | plant injury at 500 g/ha ([9]; pre-emergence, Preemergence, 500 g ai/ha, 0 to 100 scale (0 no effect, 100 complete control), read-out: Plant response rating, Wheat): 60% | Plant response rating, Oat, Wild [10, 25]: 5 | Plant response rating, Oat, Wild [10, 26]: 5 | Plant response rating, Oat, Wild ([10]; 125 g ai/ha, scale 0 to 100, 0 no effect, 100 complete control): 5 | Plant response rating, Oat, Wild ([10]; 250 g ai/ha, scale 0 to 100): 10 | Plant response rating, Waterhemp [11, 25]: 35 | Plant response rating, Waterhemp [11, 26]: 65 | Plant response rating, Waterhemp ([11]; 250 g ai/ha, scale 0 to 100): 75
